Assay results: patent publication US10670616B2, “Microchip for assay of blood properties, and device for assay of blood properties” (FUJIMORI KOGYO CO., LTD., priority 2014, dated 2020)

Assays:
[1] = test system: thrombus formation in blood; experiment: Microchip pressure analysis, first channel, collagen + tissue thromboplastin, 8 μl/min (Example 4); format: cell-based; settings: for integrated values of the pressures measured for 10 minutes, first channel: 8 μL/min
Method: (§1) A microchip having the same shape as in Examples 1 to 3 was prepared, and, in the second substrate 1b, a solution prepared by mixing 3 mg/ml collagen solution and 0.4 mg/ml tissue thromboplastin solution at a ratio of 1:1 was applied to the positions corresponding to the first reaction section 102 and the second reaction section 112 such that each applied area has a size of 6 mm×6 mm. The microchip prepared was used in the following experiment.
(§2) Blood was collected using a blood collection tube containing 3.2% sodium citrate, manufactured by Terumo Corporation. To the collected blood, 50 μg/ml (final concentration) CTI and 12 mM (final concentration) calcium chloride were added, and the resulting blood was used for perfusion of the first channel at a flow rate of 8 μl/min. (initial wall shear rate, about 660 s^−1) and the second channel at a flow rate of 24 μl/min. (initial wall shear rate, about 2000 s^−1) for 10 minutes while pressure analysis was carried out.
(§3) The same experiment as in Example 4-1 was carried out using (1) blood prepared by 2-fold dilution of the citrate blood with physiological saline; (2) blood prepared by adding a 0.5 U vWF (von Willebrand factor) formulation (CSL-Behring) to the 2-fold diluted blood of (1); (3) blood prepared by adding a 0.5 U PCC formulation (CSL-Behring) to the 2-fold diluted blood of (1); (4) blood prepared by adding 1 U heparin; or (5) blood prepared by adding 3 μg/ml Abciximab (Eli Lilly).
(§4) The integrated values of the pressures measured for 10 minutes, and the ratios between the first channel and the second channel are shown in the following Table 1.

blood coagulation [2] = experiment: ROTEM analysis of blood coagulation in the absence of blood flow (Comparative Example 1); format: cell-based; settings: 12 mM calcium chloride, 50 μg/ml CTI and 1 μg/ml Arixtra
Method: Blood was collected using a blood collection tube containing 3.2% sodium citrate, manufactured by Terumo Corporation. To the collected blood, 12 mM calcium chloride; 12 mM calcium chloride and 50 μg/ml CTI; or 12 mM calcium chloride, 50 μg/ml CTI, and 1 μg/ml Arixtra (synthetic pentasaccharide, GlaxoSmithKline K.K.); was/were added, and each resulting blood was analyzed by ROTEM (Tem International GmbH).

blood coagulation [3] = experiment: ROTEM analysis of canine blood coagulation in the absence of blood flow (Comparative Example 2); format: cell-based; settings: 0.5 U/ml with 50 μg/ml CTI and 12 mM calcium chloride
Method: Canine blood was anticoagulated with 3.2% sodium citrate. Subsequently, 12 mM calcium chloride; 50 μg/ml (final concentration) CTI and 12 mM (final concentration) calcium chloride; or 0.5 U/ml (final concentration) danaparoid sodium, 50 μg/ml CTI, and 12 mM (final concentration) calcium chloride; was/were added to the blood, and blood coagulation in the absence of blood flow was analyzed by ROTEM (Tem International GmbH).

[4] = test system: white thrombi in the presence of blood flow; experiment: Microchip pressure analysis with canine blood (Examples 5, 6); format: cell-based; settings: 0.5 U danaparoid sodium, 24 and 8 μl/min, 10 minutes
Method: Canine blood was anticoagulated with 3.2% sodium citrate. Subsequently, 50 μg/ml (final concentration) CTI and 12 mM (final concentration) calcium chloride were added to the blood, and the resulting blood was used for perfusion of the first channel at a flow rate of 24 μl/min. and the second channel at a flow rate of 8 μl/min. for 10 minutes while pressure analysis was carried out.
An experiment was carried out in the same manner as in Example 5 except that 0.5 U danaparoid sodium was added to the dog sodium citrate blood.

[5] = test system: thrombus formation in blood; experiment: Microchip pressure analysis, second channel, collagen + tissue thromboplastin, 24 μl/min (Example 4); format: cell-based; settings: for integrated values of the pressures measured for 10 minutes, second channel: 24 μL/min
Method: as §1, §2, §3, §4

[6] = test system: thrombus formation in blood; experiment: Microchip pressure analysis, second channel, collagen + 0.2 mg/ml tissue thromboplastin, 24 μl/min (Examples 9, 10); format: cell-based; settings: for areas under pressure, second channel: 24 μL/min
Method: (§5) The same microchip as in Examples 1 to 3 was used, except that, in the second substrate 1b, a solution prepared by mixing 3 mg/ml collagen and 0.4 mg/ml tissue thromboplastin solution at a ratio of 1:1 and a solution prepared by mixing 3 mg/ml collagen and 0.2 mg/ml tissue thromboplastin solution at a ratio of 1:1 were applied to the positions corresponding to the first reaction section 102 and the second reaction section 112, respectively, such that each applied area has a size of 6 mm×6 mm. The microchip prepared was used in the following experiment.
as §2, with “μl/min.” for “μl/min. (initial wall shear rate, about 660 s^−1)”, “μl/min.” for “μl/min. (initial wall shear rate, about 2000 s^−1)”
(§6) The same experiment as in Example 9 was carried out except that blood prepared by 2-fold dilution with physiological saline (Otsuka Pharmaceutical Co., Ltd.), blood prepared by 2-fold dilution with physiological saline+addition of 0.5 U/ml vWF (CSL-Behring), blood prepared by 2-fold dilution+addition of 0.5 U/ml PCC (CSL-Behring), blood prepared by addition of 1 U/ml heparin, or blood prepared by addition of 2 μg/ml abciximab, was used.

[7] = test system: thrombus formation in blood; experiment: Microchip pressure analysis, first channel, collagen + 0.4 mg/ml tissue thromboplastin, 8 μl/min (Examples 9, 10); format: cell-based; settings: for areas under pressure, first channel: 8 μL/min
Method: as §5
as §2, with “μl/min.” for “μl/min. (initial wall shear rate, about 660 s^−1)”, “μl/min.” for “μl/min. (initial wall shear rate, about 2000 s^−1)”
as §6

[8] = test system: thrombus formation (fibrin and platelets) in blood; experiment: Microchip pressure analysis, first channel coated with collagen and tissue thromboplastin, recalcified citrate blood + CTI (Examples 1, 2); format: cell-based, human
Method: (§7) Two transparent substrates, that is, the first substrate 1a shown in FIG. 1(A) and the second substrate 1b shown in FIG. 1(B) (injection-molded products manufactured by Richell Corporation), were prepared. In the first substrate 1a, each of the channels 101 and 111 has a length of 20 mm, depth of 40 μm, and width of 2 mm, and each of the waste liquid storage sections has a length of 30 mm, depth of 1.3 mm, and width of 8.5 mm.
(§8) In the substrate 1a, 25 dividing walls each having a height of 40 μm, width of 40 μm, and length of 1.5 mm were arranged at equal intervals at positions corresponding to the first reaction section and the second reaction section of the first channel and the second channel, to provide channel dividing walls 109 and 119, respectively.
(§9) In the second substrate 1b, the holes corresponding to the inlets 104 and 114 were provided as penetrating holes each having an inner diameter of 2 mm and a circular cross-sectional shape. On the other hand, the holes corresponding to the air holes 105 and 115 were provided as penetrating holes each having an inner diameter of 1 mm and a circular cross-sectional shape. […]
(§10) Pumps 107 and 117 were connected to the reservoirs 106 and 116 through tubes, and the pressures applied to the pumps were measured using pressure sensors 108 and 118.

[9] = test system: platelet-specific thrombus formation in blood; experiment: Microchip pressure analysis, second channel coated with only collagen, hirudin-treated blood (Examples 1, 2); format: cell-based, human
Method: as §7, §8, §9, §10

[10] = undiluted blood, heparin 1 U/ml or abciximab 3 μg/ml, control 482
[11] = undiluted blood, heparin 1 U/ml or abciximab 3 μg/ml, control 409.3
[12] = undiluted blood, 1 U/ml heparin or 2 μg/ml abciximab, cont 438.2
[13] = undiluted blood, 1 U/ml heparin or 2 μg/ml abciximab, cont 393.8

CO[C@H]1O[C@H](COS(=O)(=O)O)[C@@H](O[C@@H]2O[C@@H](C(=O)O)[C@@H](O[C@H]3O[C@H](COS(=O)(=O)O)[C@@H](O[C@@H]4O[C@H](C(=O)O)[C@@H](O[C@H]5O[C@H](COS(=O)(=O)O)[C@@H](O)[C@H](O)[C@H]5NS(=O)(=O)O)[C@H](O)[C@H]4O)[C@H](OS(=O)(=O)O)[C@H]3NS(=O)(=O)O)[C@H](O)[C@H]2OS(=O)(=O)O)[C@H](O)[C@H]1NS(=O)(=O)O [Arixtra]
change in the pressure waveform ([1]; Example 4-1 conditions, further addition of 0.5 μg/ml to the blood): no remarkable change in the pressure waveform | blood coagulation in the absence of blood flow (blood coagulation [2]): strongly suppresses blood coagulation

danaparoid sodium
blood coagulation in the absence of blood flow (blood coagulation [3]): remarkable delay of blood coagulation | white thrombi in the presence of blood flow [4]: hardly suppresses white thrombi

heparin [reference compound]
integrated values of the pressures measured for 10 minutes, second channel [5, 10]: 328.4 | integrated values of the pressures measured for 10 minutes, first channel [1, 11]: 127.3 | areas under pressure, second channel [6, 12]: 198 | areas under pressure, first channel [7, 13]: 12 | thrombus formation in the first channel ([7]; Examples 9 and 10): more strongly suppressed thrombus formation in the first channel

vWF: vWF (von Willebrand factor) formulation (CSL-Behring)
integrated values of the pressures measured for 10 minutes, second channel ([5]; 50% dilution of citrate blood with physiological saline + 0.5 U/ml factor, 50% dilution alone 248.2): 381.1 | thrombi in the second channel ([5]; Example 4-2, 24 μl/min): remarkable recovery of thrombi in the second channel | integrated values of the pressures measured for 10 minutes, first channel ([1]; 50% dilution of citrate blood with physiological saline + 0.5 U/ml factor, 50% dilution alone 203.9): 171.2 | areas under pressure, second channel ([6]; 50% dilution with physiological saline + 0.5 U/ml factor, 50% dil alone 110.2): 282.8 | areas under pressure, first channel ([7]; 50% dilution with physiological saline + 0.5 U/ml factor, 50% dil alone 195.8): 297.9

B1: abciximab (antibody, chains of the INN, looked up, V domains shown)
VH: EVQLQQSGTVLARPGASVKMSCEASGYTFTNYWMHWVKQRPGQGLEWIGAIYPGNSDTSYIQKFKGKAKLTAVTSTTSVYMELSSLTNEDSAVYYCTLYDGYYVFAYWGQGTLVTVSA
VL: EIVLTQSPVTLSVTPGDSVSLSCRASRDISNNLHWFQQTSHESPRLLIKYASQSMSGIPSRFSGSGSGTDFTLSINSVETEDFGMYFCQQTNSWPYTFGGGTKLEIK
modifications: Fab
thrombus formation in the first channel ([8]; Examples 1 and 2): suppressed | integrated values of the areas below 60 kPa, first channel ([8]; citrate blood + 12 mM calcium chloride + 50 μg/ml CTI, 18 μl/min, 10 minutes, 10 mM aspirin + 100 μM AR-C66096, 3 μg/ml abciximab or 200 nM OS-1, control 457): 27.0 | integrated values of the pressures measured for 10 minutes, second channel [5, 10]: 20.5 | integrated values of the pressures measured for 10 minutes, first channel [1, 11]: 394.8 | thrombus formation in the second channel ([9]; Examples 1 and 2): suppressed | integrated values of the areas below 60 kPa, second channel ([9]; hirudin blood, 18 μl/min, 10 minutes, 10 mM aspirin + 100 μM AR-C66096, 3 μg/ml abciximab or 200 nM OS-1, control 372): 5.4 | areas under pressure, second channel [6, 12]: 6 | thrombus formation in the second channel ([6]; Examples 9 and 10): more strongly suppressed thrombus formation in the second channel | areas under pressure, first channel [7, 13]: 258
